The values that follow come from patent US20050143450A1, “Alkyl PCDF as a treatment for prostate cancer” (priority 2002, published 2005).

Molecules are shown by their SMILES. Where only a bound is given, the exact number is not on record here.

The target in assay [1] is T1, AR (Homo sapiens, UniProt P10275, T878A).
T1 construct: AR protein levels in whole cell lysates were determined by Western blot analysis; endogenous in cells; host or cells: LNCaP
T1 sequence (P10275 1-920 T878A): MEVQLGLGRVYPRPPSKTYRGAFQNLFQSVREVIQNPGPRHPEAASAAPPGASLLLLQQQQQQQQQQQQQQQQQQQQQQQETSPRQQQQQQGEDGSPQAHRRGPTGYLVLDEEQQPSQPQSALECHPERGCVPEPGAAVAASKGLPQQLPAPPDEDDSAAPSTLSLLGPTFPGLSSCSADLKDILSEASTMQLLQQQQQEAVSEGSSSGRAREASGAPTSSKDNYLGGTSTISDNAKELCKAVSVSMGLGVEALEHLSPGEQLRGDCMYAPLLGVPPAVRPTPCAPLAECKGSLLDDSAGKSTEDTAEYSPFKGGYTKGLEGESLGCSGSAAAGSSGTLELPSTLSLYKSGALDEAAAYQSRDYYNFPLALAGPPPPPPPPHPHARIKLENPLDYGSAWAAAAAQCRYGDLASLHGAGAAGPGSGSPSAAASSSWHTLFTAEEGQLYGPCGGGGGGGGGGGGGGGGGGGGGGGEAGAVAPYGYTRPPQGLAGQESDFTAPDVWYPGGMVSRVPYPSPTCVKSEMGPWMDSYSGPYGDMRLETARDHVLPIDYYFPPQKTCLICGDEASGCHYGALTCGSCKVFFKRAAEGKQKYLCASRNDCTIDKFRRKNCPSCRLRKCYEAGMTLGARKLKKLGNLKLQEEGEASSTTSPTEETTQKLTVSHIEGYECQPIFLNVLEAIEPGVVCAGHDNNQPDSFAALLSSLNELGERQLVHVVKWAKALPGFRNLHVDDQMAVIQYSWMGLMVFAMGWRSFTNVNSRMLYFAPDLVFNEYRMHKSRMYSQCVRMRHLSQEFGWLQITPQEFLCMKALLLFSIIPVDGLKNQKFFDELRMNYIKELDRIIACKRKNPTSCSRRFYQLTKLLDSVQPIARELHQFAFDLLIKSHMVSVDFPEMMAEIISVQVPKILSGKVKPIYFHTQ
The format is cell-based. The note with it: LNCaP; for effect on DHT-induced luciferase activity: pARR3, cotreatment with DHT; for effect on E2-induced luciferase activity: pARR3, cotreatment with E2. The method, then: (§1) After 24 h, cells were transfected using Lipofectamine and Plus reagents (Invitrogen) according to manufacturer's instructions. LNCaP and ZR-75 cells were transfected with 500 ng/well of either reporter plasmid, and 250 ng/well of pcDNA3.1-β-gal (Invitrogen) as the internal control. In addition, ZR-75 cells were transfected with 500 ng hAR. Twenty-four hours after treatment, cells were harvested by scraping with 200 μL/well of reporter lysis buffer. Lysates were centrifuged at 40,000 g and luciferase and β-galactosidase activity was assayed with 30 μL of the supernatant extract per sample using a Lumicount luminometer (PerkinElmer, Boston, Mass.). Luciferase activity was normalized to β-galactosidase activity for each transfection well.
Next, LNCaP cells were transfected with pARR3 construct that contained three tandem (3) copies of the probasin androgen response element. The transfected cells were treated with hormone or AhR agonist alone or in combination and luciferase activity was determined as described in the above examples.

The target of another assay is T2, AhR (Homo sapiens, UniProt P35869).
T2 construct: LNCaP cells were transfected with pDRE3, treated with various compounds and luciferase activity was determined; endogenous in cells; host or cells: LNCaP
T2 sequence (P35869 11-848): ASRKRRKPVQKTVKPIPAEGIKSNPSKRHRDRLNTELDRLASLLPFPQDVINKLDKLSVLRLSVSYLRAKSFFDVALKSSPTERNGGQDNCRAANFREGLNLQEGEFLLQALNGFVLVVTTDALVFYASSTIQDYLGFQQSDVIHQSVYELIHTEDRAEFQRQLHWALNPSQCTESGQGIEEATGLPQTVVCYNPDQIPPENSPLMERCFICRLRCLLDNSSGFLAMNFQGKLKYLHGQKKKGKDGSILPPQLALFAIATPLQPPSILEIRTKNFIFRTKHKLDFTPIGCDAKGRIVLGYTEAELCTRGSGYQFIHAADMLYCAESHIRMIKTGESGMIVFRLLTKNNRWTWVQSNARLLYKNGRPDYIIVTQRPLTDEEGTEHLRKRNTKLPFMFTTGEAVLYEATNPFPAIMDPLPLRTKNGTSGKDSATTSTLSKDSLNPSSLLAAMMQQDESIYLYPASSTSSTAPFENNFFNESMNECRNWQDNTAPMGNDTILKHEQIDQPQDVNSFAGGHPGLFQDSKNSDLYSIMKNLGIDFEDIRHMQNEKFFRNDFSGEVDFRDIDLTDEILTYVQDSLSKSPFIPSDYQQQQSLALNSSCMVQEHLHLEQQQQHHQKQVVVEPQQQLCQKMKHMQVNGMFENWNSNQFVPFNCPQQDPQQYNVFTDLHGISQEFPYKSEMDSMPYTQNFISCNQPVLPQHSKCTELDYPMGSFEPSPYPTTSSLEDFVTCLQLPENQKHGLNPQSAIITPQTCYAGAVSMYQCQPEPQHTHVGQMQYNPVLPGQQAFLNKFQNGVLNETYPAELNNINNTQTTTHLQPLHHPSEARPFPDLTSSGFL
The experiment in a line: AhR activation, pDRE3 luciferase transient transfection in LNCaP cells. The format is cell-based. The method, then:
as §1
LNCaP cells were transfected with pDRE3, treated with various compounds and luciferase activity was determined as described in the above Examples.

Assay [2] concerns AR. The experiment in a line: AR protein levels in LNCaP cells by Western blot. The note with it: 6 h; for AR protein levels, compound alone: DHT 10 nM, E2 10 nM, TCDD 10 nM, 6-MCDF 2 μM, HPTE 10 μM. The format is cell-based, human. The method, then: Cells were harvested 6 h after treatment using 200 μL/22-mm well of ice cold lysis buffer (50 mM HEPES, pH 7.5, 500 mM NaCl, 10% (v/v) glycerol, 1% (v/v) Triton-X 100, 1.5 mM MgCl2, 1 mM EGTA) (McDougal et al., 2001). Lysates were centrifuged at 40,000 g, and supernatant was collected as extract. Whole cell extracts (50 μg/sample) were separated by electrophoresis on a tiered 7.5% (top)/12.5% (bottom) SDS-polyacrylamide gel and transferred to PVDF membrane (Bio-Rad, Richmond, Calif.). The membrane was blocked with 5% milk (m/v) in tris-buffered saline 0.05% Tween (TBST). Membranes were incubated with primary antibodies for AR (sc-7305), cyclin D1 (sc-718), or p27 (sc-528) (each from Santa Cruz Biotechnology, Santa Cruz, Calif.) at 1:1000 in 5% milk/TBST for 3 h. Membranes were washed twice in TBST. Horseradish peroxidase (HRP)-conjugated secondary antibodies were applied at 1:5000 in 5% milk/TBST for 1 h. After two TBST washes, PVDF-bounded antibodies were detected using a chemiluminescence kit (Western Lightning, PerkinElmer), ImageTek-H film (American X-Ray and Medical Supply, Rancho Cordova, Calif.) and an autoprocessor (Hope Macro-Med, Warminster, Pa.). Quantitation of the Western blot was performed using a Sharp JX-330 scanner (Sharp, Mahwah, N.J.) and Zero-D software (Scanalytics, Billerica, Mass.).
On the technique in general: A western blot detects proteins with antibodies after separation by electrophoresis.

As for `Cc1cc(Cl)cc2c1oc1cc(Cl)cc(Cl)c12` [6-MCDF, 6-methyl-1,3,8-trichlorodibenzofuran], on AR [1], the “effect on DHT-induced luciferase activity” value is “did not decrease” and the “effect on E2-induced luciferase activity” value is recorded as “not a significant decrease”. Also, on AhR (pDRE3, 2 μM), the luciferase activity induction is on record as more than 7 fold. In the assay with AR [2], the “AR levels in combination with DHT compared to DHT alone” value is “significant decrease” and the “AR protein levels, compound alone” value is on record as “did not significantly affect”.
For the molecule `Clc1cc2c(cc1Cl)Oc1cc(Cl)c(Cl)cc1O2` [TCDD, 2,3,7,8-tetrachloro-p-dioxin], at AR [1], the “effect on DHT-induced luciferase activity” value is “did not decrease” and the “effect on E2-induced luciferase activity” value is reported as “not a significant decrease”. At AhR (pDRE3, 10 nM), the “luciferase activity induction compared to solvent control (DMSO)” value is more than 9 fold. Also, in the assay on AR [2], the “AR levels in combination with DHT compared to DHT alone” value is given as “significant decrease”; the “AR levels in combination with E2 compared to E2 alone” value is reported as “decreased”; the “AR protein levels, compound alone” value is given as “did not significantly affect”.
